Target: T1, Human HDAC6 (Homo sapiens, UniProt Q9UBN7)
T1 construct: Full length with N-terminal GST tag, MW=159 kDa; GST (N); purchased BioMol SE-508; host or cells: Sf9 cells, baculovirus
T1 sequence (Q9UBN7 1-1215): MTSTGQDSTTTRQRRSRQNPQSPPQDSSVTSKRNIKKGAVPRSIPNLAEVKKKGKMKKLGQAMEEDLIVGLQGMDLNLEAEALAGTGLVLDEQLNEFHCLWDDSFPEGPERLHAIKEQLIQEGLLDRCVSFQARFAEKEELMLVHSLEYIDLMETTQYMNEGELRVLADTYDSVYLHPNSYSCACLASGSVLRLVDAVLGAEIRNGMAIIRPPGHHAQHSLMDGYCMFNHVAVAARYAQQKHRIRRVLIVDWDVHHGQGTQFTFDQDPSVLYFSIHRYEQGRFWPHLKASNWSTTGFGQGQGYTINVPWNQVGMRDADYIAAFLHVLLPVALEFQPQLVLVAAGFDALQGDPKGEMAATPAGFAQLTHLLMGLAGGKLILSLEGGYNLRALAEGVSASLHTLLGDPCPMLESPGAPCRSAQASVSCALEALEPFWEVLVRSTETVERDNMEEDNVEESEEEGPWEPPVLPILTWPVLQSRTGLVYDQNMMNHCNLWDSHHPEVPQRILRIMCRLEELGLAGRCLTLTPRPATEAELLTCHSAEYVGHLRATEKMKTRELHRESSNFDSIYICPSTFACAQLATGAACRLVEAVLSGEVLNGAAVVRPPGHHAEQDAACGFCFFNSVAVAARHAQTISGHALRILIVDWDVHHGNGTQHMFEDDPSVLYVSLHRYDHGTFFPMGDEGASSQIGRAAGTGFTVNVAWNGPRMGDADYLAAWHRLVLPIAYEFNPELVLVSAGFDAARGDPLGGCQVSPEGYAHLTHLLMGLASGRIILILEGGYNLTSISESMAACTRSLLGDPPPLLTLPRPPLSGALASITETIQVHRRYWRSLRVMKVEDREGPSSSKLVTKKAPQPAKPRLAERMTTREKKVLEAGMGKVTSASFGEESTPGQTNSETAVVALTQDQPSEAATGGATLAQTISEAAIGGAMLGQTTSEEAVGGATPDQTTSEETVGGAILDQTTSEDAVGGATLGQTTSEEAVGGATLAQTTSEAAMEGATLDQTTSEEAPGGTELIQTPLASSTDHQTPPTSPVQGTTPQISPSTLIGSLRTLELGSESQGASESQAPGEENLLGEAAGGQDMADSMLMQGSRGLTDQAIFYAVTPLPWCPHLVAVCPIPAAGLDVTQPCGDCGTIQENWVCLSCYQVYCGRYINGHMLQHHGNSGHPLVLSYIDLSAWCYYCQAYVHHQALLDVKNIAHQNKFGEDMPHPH
Test: In vitro HDAC6 inhibition, fluorogenic peptide assay
Format: biochemical
Settings: read-out: IC50 (nM) of enzyme activity HDAC6
Method: All HDAC assays were performed using acetylated AMC-labeled peptide substrate: • Substrate for isoforms HDAC1, 2, 3, 4, 5, 6, 7, 9, 10, 11 and HeLa nuclear extract assays: Acetylated fluorogenic peptide from p53 residues 379-382 (RHKKAc) (BioMol. Cat. # KI-104). • Substrate for HDAC8 assays: Acetylated fluorogenic peptide from p53 residues 379-382 (RHKAcKAc) (BioMol. Cat. # KI-178).
Enzymes: • HDAC1 assay: 75 nM Human HDAC1 (GenBank Accession No. NM_004964): Full length with C-terminal GST tag, MW=79.9 kDa, expressed by baculovirus expression system in Sf9 cells (BioMol. Cat. # SE-456). • HDAC2 assay: 5 nM Human HDAC2 (GenBank Accession No. Q92769): Full length with C-terminal His tag, MW=60 kDa, expressed by baculovirus expression system in Sf9 cells (BioMol. Cat. # SE-500). • HDAC3 assay: 2.3 nM Human HDAC3/NcoR2 (GenBank Accession No. NM_003883 for HDAC3, GenBank Accession No.NM_006312 for NcoR2): Complex of human HDAC3, full length with C-terminal His tag, MW=49.7 kDa, and human NCOR2, N-terminal GST tag, MW=39 kDa, co-expressed in baculovirus expression system (BioMol. Cat. # SE-507). • HDAC4 assay: 266 nM Human HDAC4 (GenBank Accession No. NM_006037): Amino acids 627-1085 with N-terminal GST tag, MW=75.2 kDa, expressed in baculovirus expression system (BioMol, Hamburg, Germany). • HDAC5 assay: 588 nM Human HDAC5 (GenBank Accession No. NM_001015053): Full length with Nterminal GST tag, MW=150 kDa, expressed by baculovirus expression system in Sf9 cells (BioMol, Hamburg, Germany). • HDAC6 assay: 13 nM Human HDAC6 (GenBank Accession No. BC069243): Full length with N-terminal GST tag, MW=159 kDa, expressed by baculovirus expression system in Sf9 cells (BioMol. Cat. # SE-508). • HDAC7 assay: 962 nM Human HDAC7 (GenBank Accession No. AY302468): Amino acids 518-end with N-terminal GST tag, MW=78 kDa, expressed in baculovirus expression system (BioMol, Hamburg, Germany). • HDAC8 assay: 119 nM Human HDAC8 (GenBank Accession No. NM018486): Full length, MW=42 kDa, expressed in an E. coli expression system (BioMol. Cat. # SE-145). • HDAC9 assay: 986 nM Human HDAC9 (GenBank Accession No. NM178423): Amino acids 604-1066 with C-terminal His tag, MW=50.7 kDa, expressed in baculovirus expression system (BioMol, Hamburg, Germany). • HDAC10 assay: 781 nM Human HDAC10 (GenBank Accession No. NM_032019): Amino acids 1-631 with Nterminal GST tag, MW=96 kDa, expressed by baculovirus expression system in Sf9 cells (BioMol. Cat. # SE-559). • HDAC11 assay: 781 nM Human HDAC11 (GenBank Accession No. NM_BC009676) with N-terminal GST tag, MW=66 kDa, expressed in baculovirus expression system (BioMol. Cat. # SE-560). • HeLaNuclear Extract assay: 25 ng/μl Nuclear Extract from HeLa Cells: Prepared by high salt extraction of HeLa nuclei (human cervical cancer cell line), this extract is a rich source of HDAC activity (BioMol. Cat. # KI-140).
The reactions were carried out in a 96-well microplate for fluorometry in a 50 μl reaction volume. After the deacetylation reaction, Fluor-de-Lys-Developer (BioMol Cat. # KI-105) was added to each well to digest the deacetylated substrate, thus producing the fluorescent signal. The reaction was allowed to develop for 45 minutes at 30° C. with 5% CO2; then the fluorescent signal was measured with an excitation wavelength at 360 nm and an emission wavelength at 460 nm in a microplate-reading fluorometer (GeminiXS; Molecular Devices, Sunnyvale, Calif.). […] All experiments were performed in triplicate. IC50 was calculated by fitting the experimental data to a dose-response curve. DMSO was used as negative control; Trichostatin A (Biomol Cat. # GR-309) was used as positive control inhibitor.

Structure (SMILES)	IC50 [nM]
O=C(CCCCCNC(=O)c1[nH]c(-c2ccc(O)cc2)cc1-c1ccoc1)NO [Example 5, 3-(3-furyl)-N-(5-(hydroxycarbamoyl)pentyl)-5-(4-hydroxy-phenyl)-1H-pyrrole-2-carboxamide]	0.6
O=C(CCCCCNC(=O)c1[nH]c(-c2ccc(O)cc2)cc1-c1ccccc1)NO [Example 2, N-(6-(hydroxyamino)-6-oxohexyl)-5-(4-hydroxyphenyl)-3-phenyl-1H-pyrrole-2-carboxamide]	7.6
COc1ccc(-c2cc(-c3ccccc3)c(C(=O)NCCCCCC(=O)NO)[nH]2)cc1 [Compound B, N-[6-(hydroxyamino)-6-oxohexyl]-5-(4-methoxyphenyl)-3-phenyl-1H-pyrrole-2-carboxamide, reference compound]	32
O=C(CCCCCNC(=O)c1[nH]c(-c2ccccc2)cc1-c1ccc(O)cc1)NO [Example 1, N-(6-(hydroxyamino)-6-oxohexyl)-3-(4-hydroxyphenyl)-5-phenyl-1H-pyrrole-2-carboxamide]	14

More lines, in order of falling IC50, values ahead:

IC50 [nM]	Structure (SMILES)
20	COc1ccc(-c2cc(-c3ccccc3)[nH]c2C(=O)NCCCCCC(=O)NO)cc1 [Compound A, N-[6-(hydroxyamino)-6-oxohexyl]-3-(4-methoxyphenyl)-5-phenyl-1H-pyrrole-2-carboxamide, reference compound]
12	O=C(CCCCCNC(=O)c1[nH]c(-c2ccsc2)cc1-c1ccc(O)cc1)NO [Example 3, N-(5-(hydroxycarbamoyl)pentyl)-3-(4-hydroxyphenyl)-5-(3-thienyl)-1H-pyrrole-2-carboxamide]
9.3	O=C(CCCCCNC(=O)c1[nH]c(-c2ccoc2)cc1-c1ccc(O)cc1)NO [Example 4, 5-(3-furyl)-N-(5-(Hydroxycarbamoyl)pentyl)-3-(4-hydroxy-phenyl)-1H-pyrrole-2-carboxamide]
1.6	O=C(CCCCCNC(=O)c1[nH]c(-c2ccc(O)cc2)cc1-c1ccsc1)NO [Example 6, N-(5-(hydroxycarbamoyl)pentyl)-5-(4-hydroxyphenyl)-3-(3-thienyl)-1H-pyrrole-2-carboxamide]

From patent US20150038545A1, “HYDROXYPHENYL PYRROLE COMPOUNDS CONTAINING AN HYDROXAMIC ACID AS HDAC INHIBITORS AND MEDICINAL APPLICATIONS THEREOF” (UNIVERSIDAD DEL PAÍS VASCO, priority 2011, published 2015)
